± gives the expanded uncertainty stated by the source.
Experiment: mn = molality of the nth substance listed, in mol/kg
Conditions: 101 kPa, Liquid, METLER TOLEDO SevenEasy conductivity meter

O=[N+]([O-])[O-].O=[N+]([O-])[O-].O=[N+]([O-])[O-].[Ce+3] [cerium nitrate] + O
electrical conductivity [S/m]
Conditions | m1 = 0.5112 | m1 = 1.031 | m1 = 1.555 | m1 = 1.997 | m1 = 3.131 | m1 = 3.968 | m1 = 4.462
293.15 K | 6.618 ± 0.066 | 8.513 ± 0.085 | 8.217 ± 0.082 | 7.244 ± 0.072 | 4.309 ± 0.043 | 2.67 ± 0.027 | 1.912 ± 0.019
298.15 K | 7.4 ± 0.074 | 9.446 ± 0.094 | 9.15 ± 0.092 | 8.103 ± 0.081 | 4.9 ± 0.049 | 3.1 ± 0.031 | 2.244 ± 0.022
308.15 K | 8.78 ± 0.088 | 11.24 ± 0.11 | 10.9 ± 0.11 | 9.78 ± 0.098 | 6.136 ± 0.061 | 4.018 ± 0.04 | 2.96 ± 0.03

O=[N+]([O-])[O-].O=[N+]([O-])[O-].O=[N+]([O-])[O-].[Nd+3] [neodymium(III) nitrate] + O
electrical conductivity [S/m]
Conditions | m1 = 0.522 | m1 = 1.021 | m1 = 1.555 | m1 = 2.093 | m1 = 3.086 | m1 = 4.124 | m1 = 4.297
293.15 K | 6.78 ± 0.068 | 8.78 ± 0.088 | 8.65 ± 0.087 | 7.44 ± 0.074 | 4.708 ± 0.047 | 2.521 ± 0.025 | 2.219 ± 0.022
298.15 K | 7.48 ± 0.075 | 9.66 ± 0.097 | 9.545 ± 0.095 | 8.27 ± 0.083 | 5.329 ± 0.053 | 2.931 ± 0.029 | 2.623 ± 0.026
308.15 K | 8.97 ± 0.09 | 11.5 ± 0.12 | 11.44 ± 0.11 | 10.01 ± 0.1 | 6.65 ± 0.067 | 3.821 ± 0.038 | 3.422 ± 0.034

O=[N+]([O-])[O-].O=[N+]([O-])[O-].O=[N+]([O-])[O-].[Y+3] [yttrium nitrate] + O
electrical conductivity [S/m]
Conditions | m1 = 0.4989 | m1 = 0.9965 | m1 = 1.497 | m1 = 1.982 | m1 = 2.947 | m1 = 3.945 | m1 = 4.957
293.15 K | 7.202 ± 0.072 | 10.03 ± 0.1 | 10.36 ± 0.1 | 9.433 ± 0.094 | 6.35 ± 0.064 | 3.68 ± 0.037 | 1.89 ± 0.019
298.15 K | 8.339 ± 0.083 | 11.6 ± 0.12 | 12 ± 0.12 | 10.9 ± 0.11 | 7.421 ± 0.074 | 4.4 ± 0.044 | 2.28 ± 0.023
308.15 K | 9.922 ± 0.099 | 13.7 ± 0.14 | 14.17 ± 0.14 | 13.03 ± 0.13 | 9.08 ± 0.091 | 5.611 ± 0.056 | 3.08 ± 0.031
